Source: PMC5260423 (Journal of Veterinary Internal Medicine, 2016)

What was measured:
[1] = test system: Pseudomonas aeruginosa; type: in vivo, dog
[2] = type: in vivo, dog; settings: 7 days, AST 24 hours after last dose
[3] = type: in vivo, dog
[4] = test system: tubulin; type: cell-based, dog
[5] = type: in vivo, dog; settings: 15 mg/kg PO q12 h for 2 weeks
[6] = type: in vivo, dog; settings: mean ± SD; 18 of 20 dogs; single 1 mg/kg oral aspirin; LC‐MS
[7] = test system: platelet function; type: in vivo, dog; settings: Day 7
[8] = test system: platelet function; type: in vivo, dog; settings: day 7; HM5 analyzer
[9] = test system: platelet aggregation; type: in vivo, dog; settings: 1 mg/kg orally; 20, 40 and 180 minutes
[10] = test system: platelet function; type: in vivo, dog
[11] = test system: platelet function; type: in vivo, dog; settings: day 7
[12] = test system: platelet function; type: in vivo, dog; settings: day 7; remark: listed apart in the source
[13] = not given; remark: listed apart in the source
[14] = test system: Anaplasma phagocytophilum; type: in vivo, dog
[15] = target: Angiotensin converting enzyme (ACE) (Canis lupus familiaris, UniProt A0A8I3S3I6); type: in vivo, dog; settings: enalapril 0.5 mg/kg orally twice a day, 14–21 days
Chain of Angiotensin converting enzyme (ACE) (A0A8I3S3I6 31-1241 limits assumed): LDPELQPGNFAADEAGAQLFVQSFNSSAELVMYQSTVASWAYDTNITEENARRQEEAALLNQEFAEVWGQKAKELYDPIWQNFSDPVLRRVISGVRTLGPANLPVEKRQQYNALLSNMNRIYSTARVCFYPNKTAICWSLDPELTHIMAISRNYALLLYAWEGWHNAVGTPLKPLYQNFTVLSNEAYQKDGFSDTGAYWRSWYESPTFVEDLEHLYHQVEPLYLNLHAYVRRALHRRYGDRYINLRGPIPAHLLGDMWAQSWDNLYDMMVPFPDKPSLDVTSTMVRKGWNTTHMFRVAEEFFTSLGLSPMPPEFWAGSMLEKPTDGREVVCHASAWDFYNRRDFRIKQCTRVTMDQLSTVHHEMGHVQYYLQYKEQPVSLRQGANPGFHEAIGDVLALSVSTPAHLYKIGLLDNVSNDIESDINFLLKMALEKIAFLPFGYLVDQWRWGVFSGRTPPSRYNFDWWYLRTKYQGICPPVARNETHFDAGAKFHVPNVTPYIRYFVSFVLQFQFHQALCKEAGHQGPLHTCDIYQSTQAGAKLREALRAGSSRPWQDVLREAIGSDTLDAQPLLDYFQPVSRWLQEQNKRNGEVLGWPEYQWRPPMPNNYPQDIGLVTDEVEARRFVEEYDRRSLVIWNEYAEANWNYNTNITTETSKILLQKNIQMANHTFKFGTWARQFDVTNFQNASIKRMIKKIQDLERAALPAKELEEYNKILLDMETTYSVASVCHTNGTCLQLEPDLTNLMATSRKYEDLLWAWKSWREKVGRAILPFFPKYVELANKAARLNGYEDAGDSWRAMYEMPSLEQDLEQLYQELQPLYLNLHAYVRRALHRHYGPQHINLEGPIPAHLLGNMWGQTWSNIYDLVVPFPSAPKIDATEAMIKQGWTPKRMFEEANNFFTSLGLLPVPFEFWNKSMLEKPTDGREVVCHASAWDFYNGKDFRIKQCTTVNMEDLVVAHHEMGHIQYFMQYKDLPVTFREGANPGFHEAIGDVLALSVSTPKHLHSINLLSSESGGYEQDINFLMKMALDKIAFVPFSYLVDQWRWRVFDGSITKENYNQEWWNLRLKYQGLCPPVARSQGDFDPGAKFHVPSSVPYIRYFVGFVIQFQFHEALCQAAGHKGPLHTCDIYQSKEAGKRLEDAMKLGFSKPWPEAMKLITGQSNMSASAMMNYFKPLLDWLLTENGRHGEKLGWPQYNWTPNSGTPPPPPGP

[16] = type: in vivo, dog; remark: listed apart in the source
[17] = test system: hypothalamic‐pituitary‐thyroid axis; type: in vivo, dog; settings: mean dose 0.024 mg/kg every 24 hours for 8 or 16 weeks
[18] = type: in vivo, dog; remark: listed apart in the source
[19] = type: in vivo, cat
[20] = test system: Ixodes scapularis; type: in vivo, dog
[21] = test system: Borrelia burgdorferi; type: in vivo, dog; settings: single oral dose; negative antibody, PCR, and culture
[22] = test system: Anaplasma phagocytophilum; type: in vivo, dog; settings: all sarolaner‐treated dogs
[23] = type: in vivo, dog; remark: listed apart in the source
[24] = not given; remark: listed apart in the source
[25] = in vivo; cited from earlier work
[26] = type: in vivo, dog; remark: listed apart in the source
[27] = type: in vivo, dog; remark: listed apart in the source
[28] = 8.5 mg/kg orally every 12 hours

CC[C@H]1OC(=O)[C@H](C)[C@@H](O[C@H]2C[C@@](C)(OC)[C@@H](O)[C@H](C)O2)[C@H](C)[C@@H](O[C@@H]2O[C@H](C)C[C@H](N(C)C)[C@H]2O)[C@](C)(O)C[C@@H](C)CN(C)[C@H](C)[C@@H](O)[C@]1(C)O [Azithromycin]
concentration of BHL, HHL and OdDHL in ear canal samples ([1]; 1 mL of 50 µg/mL topical SID for 56 days, P ≥ 0.2): not affected | clinical signs and duration of the disease ([1]; P = 0.5): no effect

CC(=O)OCC(=O)[C@@]1(O)CC[C@H]2[C@@H]3CCC4=CC(=O)CC[C@]4(C)[C@H]3C(=O)C[C@@]21C [CA, cortisone acetate]
mean (±SEM) post AST serum cortisol, 25 mg [2]: 335 ± 13 nmol/L | mean (±SEM) post AST serum cortisol, 37.5 mg [2]: 326 ± 13 nmol/L | mean (±SEM) post AST serum cortisol, 50 mg [2]: 308 ± 13 nmol/L | mean (±SEM) post AST serum cortisol, 12.5 mg ([2]; 14 dogs, placebo 365 ± 13): 347 ± 13 nmol/L

C[C@]12CCC(=O)C=C1CC[C@@H]1[C@@H]2[C@@H](O)C[C@@]2(C)[C@H]1CC[C@]2(O)C(=O)CO [Hydrocortisone, hydrocortisone]
serum adiponectin concentrations on days 1, 3, 7, 30, 60, and 90 versus day 0 [3, 28]: decreased | serum leptin concentrations on days 1, 3, 7, 30, 60, and 90 versus day 0 [3, 28]: significantly increased | abdominal visceral fat mass on days 30, 60, and 90 versus day 0 ([3]; 8.5 mg/kg orally every 12 hours for 90 days, six dogs, CT): increased abdominal visceral fat mass

COC(=O)Nc1nc2ccc(C(=O)c3ccccc3)cc2[nH]1 [MBZ, mebendazole]
tubulin depolymerization versus untreated control [4]: increased depolymerization of tubulin

Cc1ncc([N+](=O)[O-])n1CCO [Metronidazole, metronidazole]
altered fecal metabolites, out of 469 measured [5]: 98 | fecal secondary bile acids ([5]; P < 0.001): reduction in secondary bile acids

O=C(O)c1ccccc1O [SA, salicylic acid]
maximum plasma concentrations (Cmax) [6]: 21 ± 5 µM

CC(=O)Oc1ccccc1C(=O)O [aspirin, acetylsalicylic acid]
dogs with PFA‐100 closure time >300 seconds, Dose A ([7]; 0.5 mg/kg, q24 h): 0% | dogs with PFA‐100 closure time >300 seconds, Dose B ([7]; 1 mg/kg, q24 h): 25% | dogs with PFA‐100 closure time >300 seconds, Dose C ([7]; 2 mg/kg, q24 h): 62.5% | dogs with PFA‐100 closure time >300 seconds, Dose D ([7]; 4 mg/kg, q24 h): 87.5% | dogs with PFA‐100 closure time >300 seconds, Dose E ([7]; 10 mg/kg, q12 h): 87.5% | PW % aggregation with AA, post treatment mean [8]: 7% | maximum plasma concentrations (Cmax) [6]: 0.23 ± 0.21 µM | inhibition of platelet aggregation after single dose [9]: did not cause measureable inhibition of platelet aggregation | mean decrease in maximum amplitude, Dose A ([10]; 0.5 mg/kg, q24 h PO, Day 7 versus Day 0): 3.8% | mean decrease in maximum amplitude, Dose B ([10]; 1 mg/kg, q24 h PO, Day 7): 41.3% | mean decrease in maximum amplitude, Dose C ([10]; 2 mg/kg, q24 h PO, Day 7): 81.3% | mean decrease in maximum amplitude, Dose D ([10]; 4 mg/kg, q24 h PO, Day 7): 75.9% | mean decrease in maximum amplitude, Dose E ([10]; 10 mg/kg, q12 h PO, Day 7): 87.8%

COC(=O)[C@H](c1ccccc1Cl)N1CCc2sccc2C1 [clopidogrel]
PW % aggregation with AA, post treatment mean [8]: 4% | PW % aggregation with ADP, post treatment mean [8]: 9% | MP AUC with AA, post treatment mean [11]: 19 U | MP AUC with ADP, post treatment mean [11]: 13 U | PFA closure time, COL‐ADP cartridge, post treatment mean [12]: 185 s | PFA closure time, P2Y cartridge, post treatment mean [12]: > 300 s

O=P1(N(CCCl)CCCl)NCCCO1 (stereo not drawn) [cyclophosphamide]
dogs with stable disease or partial/complete remission >100 days (10 mg cyclophosphamide daily/every other day): 74% | dogs that developed haematuria (10 mg cyclophosphamide daily/every other day, three dogs): 8.6% | dogs still alive over one year later (13 of 35 dogs): 37% | dogs with DFI >6 months (20 of 35 dogs): 57% | median survival time (MST), intermediate/high grade sarcomas (n = 18): 362 days

COc1cccc2c1C(=O)c1c(O)c3c(c(O)c1C2=O)C[C@@](O)(C(=O)CO)C[C@@H]3O[C@H]1C[C@H](N)[C@H](O)[C@H](C)O1 [doxorubicin]
MTD of doxorubicin in the combination ([13]; IV every 21 days with toceranib 2.75 mg/kg PO every other day, 21 dogs): 25 mg/m2 | dose limiting toxicity (DLT) ([13]; dog, in vivo): neutropenia

C[C@H]1c2cccc(O)c2C(=O)C2=C(O)[C@]3(O)C(=O)C(C(N)=O)=C(O)[C@@H](N(C)C)[C@@H]3[C@@H](O)[C@@H]21 [doxycycline]
AP antibodies on Week 48 in Group 1 ([14]; doxycycline 5 mg/kg PO twice daily for 4 weeks from Week 20): The only dogs that became AP seronegative by Week 48 were administered doxycycline

CCOC(=O)[C@H](CCc1ccccc1)N[C@@H](C)C(=O)N1CCC[C@H]1C(=O)O [enalapril]
median post therapy ACE activity, dogs homozygous for DNA variant ([15]; baseline 18.05 U/L): < 5.0 U/L | median post therapy ACE activity, wildtype dogs ([15]; baseline 27.4 U/L): < 5.0 U/L

Cc1oncc1C(=O)Nc1ccc(C(F)(F)F)cc1 [leflunomide]
increased liver enzyme activities ([16]; 1 of 16): 6.3% | thrombocytopenia ([16]; 2 of 31): 6.5% | lethargy ([16]; 2 of 92): 2.2% | suspect blood dyscrasia ([16]; 3 of 92): 3.3% | diarrhea ([16]; 3 of 92, mean dose 1.79 ± 0.8 mg/kg/day): 3.3% | discontinued due to possible adverse events ([16]; 6 dogs): 6.5% | dogs with apparent positive response ([16]; 12 of 17 dogs (IMPA, IMTP, CH)): 70.5%

N[C@@H](Cc1cc(I)c(Oc2cc(I)c(O)c(I)c2)c(I)c1)C(=O)O [levothyroxine]
mean serum TSH during administration compared to baseline [17]: significantly lower | mean serum T4 and fT4 during administration compared to baseline ([17]; 28 dogs): significantly higher

CCOc1cc(N)c(Cl)cc1C(=O)NCC1CN(Cc2ccc(F)cc2)CCO1 (stereo not drawn) [mosapride]
median increase of plasma motilin after feeding, Group N ([18]; feeding only 65.0): -1.6 pg/mL | median increase of plasma motilin after feeding, Group S ([18]; feeding only 173.3): 37.0 pg/mL

COc1ccc2[nH]c([S+]([O-])Cc3ncc(C)c(OC)c3C)nc2c1 (stereo not drawn) [omeprazole]
serum gastrin in comparison to placebo ([19]; 0.83–1.6 mg/kg PO q12 h for 60 days, 6 cats, P < 0.002): significantly higher | intragastric pH after cessation ([19]; two cats with intragastric pH capsules): Evidence of gastric hyperacidity

C[C@]12C=CC(=O)C=C1CC[C@@H]1[C@@H]2[C@@H](O)C[C@@]2(C)[C@H]1CC[C@]2(O)C(=O)CO [prednisolone]
clinical abnormalities ([14]; prednisolone 2 mg/kg PO daily for 2 weeks from Week 24): Clinical abnormalities were not detected

CS(=O)(=O)CC(=O)N1CC2(C1)OCc1cc(C3=NO[C@@](c4cc(Cl)c(F)c(Cl)c4)(C(F)(F)F)C3)ccc12 [sarolaner]
percent reduction in mean live tick counts, Day 29, treated 28 days prior ([20]; 2 mg/kg oral): 90.9% | percent reduction in mean live tick counts, Day 30, treated 21 days prior ([20]; 2 mg/kg oral): 100% | percent reduction in mean live tick counts, Day 30, treated 28 days prior ([20]; 2 mg/kg oral): 97.1% | percent reduction in mean live tick counts, Day 33, treated 21 days prior ([20]; 2 mg/kg oral): 100% | percent reduction in mean live tick counts, Day 33, treated 28 days prior ([20]; 2 mg/kg oral): 100% | adverse reactions to treatment ([20]; dog, in vivo): no adverse reactions | transmission of B. burgdorferi to dogs infested 21 or 28 days after treatment [21]: prevented transmission | A. phagocytophilum antibody in treated dogs [22]: negative antibody

Cc1[nH]c(/C=C2\C(=O)Nc3ccc(F)cc32)c(C)c1C(=O)NCCN1CCCC1 [toceranib phosphate]
median time to development of proteinuria ([23]; dogs that developed proteinuria): 47 days | median UPC in dogs that developed proteinuria ([23]; urine protein creatinine ratio): 0.7

C[C@]12CC[C@H]3[C@@H](CC[C@@]45O[C@@H]4C(O)=C(C#N)C[C@]35C)[C@@H]1CC[C@@H]2O [treatment A, trilostane]
dogs with complete hair regrowth ([24]; after three months of treatment (stated for treatment A)): 50% | dogs with partial regrowth ([24]; dog, in vivo): 37.5%

COc1ccc2[nH]cc(CCNC(C)=O)c2c1 [treatment C, melatonin]
tolerability ([24]; one of the two dogs): had to be withdrawn due to emesis

Darbepoetin alfa
cats that responded, of 25 [25]: 14 cats | possible PRCA ([26]; 1/34 dogs): 2.9% | dogs with potential adverse events ([26]; dog, in vivo): 19/34 | longest dosing interval at which a response was sustained ([26]; dog, in vivo): ≤ 21 days | responders (HCT of 30% achieved) ([26]; median starting dose 0.5 mcg/kg, every 7 days in 31/34 dogs): Twenty‐nine of 34 dogs were responders | median time to response ([26]; range 6 ‐ 106): 28 days | median survival following initiation of therapy ([26]; range 30 – 546): 118 days

cyanocobalamin [cbl]
median serum cbl after 28 days, PO ([27]; daily cyanocobalamin tablets ¼ to 1 mg by weight, n = 22, 245 at inclusion): 970 ng/L | mean increase in serum cbl at 28 days to baseline, PE ([27]; dog, in vivo): 1465 ± 745 ng/L | mean increase in serum cbl at 28 days to baseline, PO ([27]; dog, in vivo, po): 888 ± 449 ng/L | mean serum cbl after 3 months, PE ([27]; n = 13): 803 ± 275 ng/L | mean serum cbl after 28 days, PE ([27]; n = 19, 221 ± 43 at inclusion): 1686 ± 757 ng/L | median serum cbl after 3 months, PO ([27]; n = 20): 1334 ng/L | median increase in serum cbl after 3 months, PE ([27]; range 38–997): 608 ng/L | median increase in serum cbl after 3 months, PO ([27]; range 538–3663): 970 ng/L
